Test systems include 786-0; A498; ACHN; HCT-116; HCT-15; HT-29; IGROV-1; KM12; MOLT-4; Malme-3M; NCI-H226; NCI-H522; OVCAR-3; OVCAR-4; SF-268; SK-MEL-2; UACC-257; SK-MEL-5.
What all share (experiment): inhibition of tumour cell growth, NCI panel, 48 h

From ChEMBL document CHEMBL1201862, “PubChem BioAssay data set” (2004) come the findings set out here.

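Where inhibition never reached the appropriate level, the endpoint shown equals the highest concentration tested. Otherwise, values were interpolated linearly from a five-concentration, 48-hour dose response in 96-well plates. GI50: concentration for 50% inhibition of growth.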 Calls of active or inactive are those of the source. Cut-off read from the data, not from the text of the source: active = GI50 up to about 1.1 µM and inactive = higher.

As to `CCNc1nc2c(=O)n(C)c(=O)n(C)c2s1`, the GI50 in the assay on 786-0 is > 100 µM (inactive); with A498, > 100 µM (inactive); in the assay on ACHN, > 100 µM (inactive); in the assay with HCT-116, > 100 µM (inactive); in the assay with HCT-15 it was greater than 100 µM; in the assay with HT-29, > 100 µM (inactive). Also, the GI50 with IGROV-1, in the assay on KM12, with MOLT-4, in the assay on Malme-3M, in the assay with NCI-H226 and in the assay on NCI-H522 was > 100 µM (inactive) in each case. Also, the GI50 in the assay on OVCAR-3, in the assay with OVCAR-4, in the assay on SF-268, in the assay on SK-MEL-2 and in the assay with UACC-257 was > 100 µM (inactive) each time.
In the case of `O=C(/C=C/c1ccc(OCCCOc2ccc(/C=C/C(=O)c3ccc(Cl)cc3)cc2)cc1)c1ccc(Cl)cc1`, the GI50 with 786-0 is > 100 µM (inactive); in the assay on ACHN, > 100 µM (inactive); in the assay with HCT-116 it was > 100 µM (inactive); in the assay on HCT-15, greater than 100 µM; with HT-29 it was > 100 µM (inactive); with IGROV-1, > 100 µM (inactive). The GI50 in the assay on KM12, with MOLT-4, with Malme-3M, in the assay on NCI-H226, with NCI-H522 and with OVCAR-3 was > 100 µM (inactive) in each case. The GI50 in the assay on OVCAR-4, in the assay on SF-268, in the assay with SK-MEL-2, in the assay on SK-MEL-5 and with UACC-257 was > 100 µM (inactive) throughout.
Turning to `CC1CCC2(OC1)OC1CC3C4CCC5CC(O)CCC5(C)C4CC(=O)OC3(C)C1C2C` (stereo not drawn), the GI50 in the assay with 786-0 was > 100 µM (inactive); in the assay on A498 it was > 100 µM (inactive); in the assay on ACHN it was > 100 µM (inactive); in the assay with HCT-116 it was > 100 µM (inactive); in the assay on HCT-15, greater than 100 µM; in the assay with HT-29 it was > 100 µM (inactive). For the same compound, the GI50 with IGROV-1, in the assay on KM12, in the assay with MOLT-4, in the assay with Malme-3M, in the assay on NCI-H522 and with OVCAR-3 was > 100 µM (inactive) throughout. For the same compound, the GI50 with OVCAR-4, in the assay on SF-268, in the assay with SK-MEL-2, in the assay on SK-MEL-5 and in the assay with UACC-257 was > 100 µM (inactive) in each case.
For the compound `C=C1C=CC2(Br)OC3CC(C)(Cl)C(Br)CC13C2(C)C` (stereo not drawn), the GI50 was 33.8 µM (inactive) in the assay with 786-0; 22.3 µM (inactive) in the assay with A498; 23.6 µM (inactive) in the assay with ACHN; 15 µM (inactive) with HCT-116; 23 µM in the assay with HCT-15; 18.1 µM (inactive) with HT-29. In addition, the GI50 in the assay on IGROV-1 is 28.9 µM (inactive); with KM12 it was 24.4 µM (inactive); in the assay with MOLT-4 it was 16.9 µM (inactive); in the assay on Malme-3M, 18.2 µM (inactive); with NCI-H226, 19.1 µM (inactive); with NCI-H522, 15.4 µM (inactive). For the same compound, the GI50 is 20 µM (inactive) with OVCAR-3; 30.1 µM (inactive) in the assay on OVCAR-4; 30.1 µM (inactive) in the assay on SF-268; 17.6 µM (inactive) in the assay with SK-MEL-2; 17.3 µM (inactive) in the assay with SK-MEL-5; 18.5 µM (inactive) with UACC-257.
On to `O=C(c1ccccc1)C(c1ccccc1)C1(O)C(=O)Nc2ccc([N+](=O)[O-])cc21` (stereo not drawn), for which the GI50 in the assay with 786-0 was > 100 µM (inactive); with A498 it was > 100 µM (inactive); with ACHN it was 33 µM (inactive); in the assay on HCT-116 it was > 100 µM (inactive); with HCT-15, greater than 100 µM; with IGROV-1 it was > 100 µM (inactive). The GI50 in the assay with MOLT-4 was 83.2 µM (inactive); with Malme-3M it was > 100 µM (inactive); in the assay on NCI-H226, > 100 µM (inactive); in the assay on NCI-H522, 74 µM (inactive); in the assay with OVCAR-4, 64.6 µM (inactive); in the assay on SF-268, > 100 µM (inactive). In addition, the GI50 in the assay with SK-MEL-2 was > 100 µM (inactive); in the assay on SK-MEL-5, 24 µM (inactive).
Regarding `COC(=O)C12C3C4C1C1C2C3C41C(=O)N(C(C)C)C(C)C` (stereo not drawn), the GI50 with 786-0 is > 100 µM (inactive); in the assay with A498 it was > 100 µM (inactive); in the assay with ACHN, > 100 µM (inactive); with HCT-116, > 100 µM (inactive); in the assay with HCT-15 it was greater than 100 µM; in the assay on HT-29, > 100 µM (inactive). Moreover, the GI50 in the assay on IGROV-1, in the assay with KM12, with MOLT-4, in the assay with Malme-3M, in the assay on NCI-H226 and with NCI-H522 was > 100 µM (inactive) each time. The GI50 with OVCAR-3, in the assay with OVCAR-4, in the assay with SF-268, in the assay with SK-MEL-5 and in the assay with UACC-257 was > 100 µM (inactive) each time.
For the compound `[N-]=[N+]=N/C1=C/CCCCC(=O)C1`, the GI50 with 786-0 was > 100 µM (inactive); with HCT-15 it was greater than 100 µM; in the assay on HT-29, > 100 µM (inactive); with IGROV-1 it was > 100 µM (inactive); in the assay on MOLT-4, > 100 µM (inactive); in the assay on Malme-3M, > 100 µM (inactive). In addition, the GI50 was 71.1 µM (inactive) in the assay with NCI-H522; > 100 µM (inactive) in the assay on OVCAR-4; > 100 µM (inactive) with SF-268; > 100 µM (inactive) with SK-MEL-2; > 100 µM (inactive) in the assay on SK-MEL-5; > 100 µM (inactive) in the assay with UACC-257.
`O=[N+]([O-])c1cc(C(F)(F)F)cc([N+](=O)[O-])c1CCl`: the GI50 in the assay with 786-0 was 3.14 µM (inactive); with A498 it was 18.6 µM (inactive); in the assay with ACHN, 14.5 µM (inactive); in the assay with HCT-116, 0.897 µM (active); in the assay on HCT-15 it was 1.58 µM; in the assay with HT-29 it was 2.14 µM (inactive). The GI50 with IGROV-1 was 2.32 µM (inactive); in the assay on KM12, 2.23 µM (inactive); in the assay with MOLT-4 it was 0.248 µM (active); in the assay with Malme-3M, 3.23 µM (inactive); in the assay with NCI-H226, 1.57 µM (inactive); in the assay with NCI-H522 it was 0.328 µM (active). The GI50 in the assay on OVCAR-3 was 5.24 µM (inactive); in the assay with OVCAR-4, 1.63 µM (inactive); in the assay on SF-268 it was 4.09 µM (inactive); in the assay with SK-MEL-5, 0.456 µM (active); with UACC-257 it was 3.72 µM (inactive).
As for `C#CCNC(=O)NCCCCC(NC(=O)OCc1ccccc1)C(=O)OCc1ccccc1` (stereo not drawn), the GI50 in the assay on 786-0 was > 58.1 µM (inactive); in the assay on A498, > 100 µM (inactive); in the assay on ACHN it was 27.7 µM (inactive); in the assay with HCT-116, > 68.2 µM (inactive); in the assay with HCT-15, greater than 86.5 µM; in the assay on HT-29, 75.3 µM (inactive). For the same compound, the GI50 with IGROV-1 was > 100 µM (inactive); with KM12, 29.8 µM (inactive); in the assay on MOLT-4, 22.2 µM (inactive); in the assay with Malme-3M, > 100 µM (inactive); in the assay on NCI-H226, > 100 µM (inactive); in the assay on NCI-H522, 22.3 µM (inactive). Moreover, the GI50 with OVCAR-3 is 59.7 µM (inactive); with OVCAR-4, > 78.3 µM (inactive); with SK-MEL-2 it was > 96.2 µM (inactive); in the assay with SK-MEL-5 it was > 100 µM (inactive); in the assay on UACC-257, 33.2 µM (inactive).
Regarding `O=C(CC1(O)C(=O)Nc2ccc([N+](=O)[O-])cc21)c1ccc(Br)cc1` (stereo not drawn), the GI50 in the assay on 786-0 was 61 µM (inactive); with A498, 23.2 µM (inactive); in the assay on ACHN, 56.6 µM (inactive); with HCT-116, 37.2 µM (inactive); in the assay with HCT-15, greater than 100 µM; in the assay with HT-29, > 100 µM (inactive). Besides, the GI50 was 42.9 µM (inactive) with KM12; 35.8 µM (inactive) in the assay with MOLT-4; > 100 µM (inactive) in the assay on Malme-3M; 85.1 µM (inactive) in the assay on NCI-H226; 19.6 µM (inactive) in the assay with NCI-H522; 43 µM (inactive) with OVCAR-3. Besides, the GI50 with OVCAR-4 is 49.7 µM (inactive); in the assay with SF-268, 55.1 µM (inactive); in the assay with SK-MEL-2 it was > 100 µM (inactive); in the assay with UACC-257, 69.8 µM (inactive).
Take `NC1=NC(=O)C(CC(=O)Nc2ccc(Cl)cc2Cl)S1` (stereo not drawn): the GI50 in the assay on 786-0 is > 100 µM (inactive); with A498, 57.4 µM (inactive); in the assay with ACHN it was > 100 µM (inactive); in the assay with HCT-15, greater than 100 µM; in the assay with HT-29, > 100 µM (inactive); with IGROV-1, > 100 µM (inactive). Further, the GI50 is > 100 µM (inactive) in the assay on KM12; 48.4 µM (inactive) in the assay with MOLT-4; > 100 µM (inactive) with Malme-3M; > 100 µM (inactive) in the assay with OVCAR-3; > 100 µM (inactive) with OVCAR-4; > 100 µM (inactive) in the assay with SF-268. Besides, the GI50 in the assay with SK-MEL-2, with SK-MEL-5 and with UACC-257 was > 100 µM (inactive) throughout.
Regarding `CC(=O)O[C@H]1C=CC23OC(=O)[C@]1(C)[C@H]2[C@H](C(=O)O)C12CC(=O)[C@@](CO)(CC[C@H]13)C2`, the GI50 is > 100 µM (inactive) with 786-0; > 100 µM (inactive) in the assay with ACHN; > 100 µM (inactive) with HCT-116; greater than 100 µM in the assay with HCT-15; > 100 µM (inactive) in the assay on HT-29; > 100 µM (inactive) in the assay on IGROV-1. For the same compound, the GI50 in the assay on KM12, in the assay on MOLT-4, in the assay with NCI-H226, with NCI-H522, in the assay with OVCAR-3 and in the assay with OVCAR-4 was > 100 µM (inactive) each time. Further, the GI50 in the assay on SF-268, with SK-MEL-2, in the assay with SK-MEL-5 and with UACC-257 was > 100 µM (inactive) throughout.
